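Test compounds were applied to cells in 96-well plates for 48 hours at 5 doses. GI50: concentration for 50% inhibition of growth.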 Active and inactive are the calls of the source. No stated cut-off is given here; in the data, active = GI50 up to about 1.1 µM and inactive = higher.
How the values were obtained:
Experiment in all cases: inhibition of tumour cell growth, NCI panel, 48 h
MOLT-4 = tested on: MOLT-4
SK-MEL-5 = tested on: SK-MEL-5
DU-145 = tested on: DU-145
HOP-62 = tested on: HOP-62
OVCAR-5 = tested on: OVCAR-5
COLO 205 = tested on: COLO 205
UACC-62 = tested on: UACC-62
TK-10 = tested on: TK-10
SK-MEL-2 = tested on: SK-MEL-2
HCT-116 = tested on: HCT-116
UO-31 = tested on: UO-31
NCI-H226 = tested on: NCI-H226
HT-29 = tested on: HT-29
OVCAR-3 = tested on: OVCAR-3
Malme-3M = tested on: Malme-3M
IGROV-1 = tested on: IGROV-1
SF-268 = tested on: SF-268
SNB-75 = tested on: SNB-75
RXF 393 = tested on: RXF 393
SR = tested on: SR

Measured: GI50

CCCCCCCCCCCCCCCCOCC(CC(F)(F)P(=O)(O)O)OC(C)=O (stereo unspecified)
inactive: MOLT-4 > 50 µM | SK-MEL-5 > 50 µM | DU-145 > 50 µM | HOP-62 15.1 µM | OVCAR-5 > 50 µM | COLO 205 > 50 µM | UACC-62 > 50 µM | TK-10 > 50 µM | SK-MEL-2 > 50 µM | HCT-116 > 50 µM | UO-31 > 50 µM | NCI-H226 > 50 µM | HT-29 > 50 µM | OVCAR-3 > 50 µM | Malme-3M > 50 µM | IGROV-1 > 50 µM | SF-268 > 50 µM | SNB-75 > 50 µM

CN(C)CCC1(C2=CCCC2)CC/C(=C\c2ccc(Cl)cc2)C1=O (stereo unspecified)
inactive: MOLT-4 2.24 µM | SK-MEL-5 1.99 µM | HOP-62 16.9 µM | OVCAR-5 12.9 µM | COLO 205 12.4 µM | UACC-62 3.08 µM | TK-10 11.1 µM | SK-MEL-2 4.45 µM | HCT-116 8.77 µM | UO-31 5.33 µM | RXF 393 2.31 µM | NCI-H226 14.2 µM | HT-29 2.95 µM | OVCAR-3 13.7 µM | Malme-3M 6.56 µM | IGROV-1 7.14 µM | SF-268 11.8 µM | SNB-75 6.85 µM | SR 4.51 µM

CC12C3CC4C5CC(C(C53)[C@@H]1NCc1ccccc1)C42 (stereo partly specified)
inactive: MOLT-4 > 100 µM | SK-MEL-5 31.5 µM | HOP-62 > 100 µM | OVCAR-5 86.9 µM | COLO 205 18.5 µM | UACC-62 > 100 µM | TK-10 > 100 µM | SK-MEL-2 > 100 µM | HCT-116 > 100 µM | UO-31 89.7 µM | RXF 393 84.9 µM | NCI-H226 > 100 µM | HT-29 24.4 µM | OVCAR-3 54.3 µM | Malme-3M > 100 µM | IGROV-1 > 100 µM | SF-268 > 100 µM | SNB-75 > 100 µM | SR > 100 µM

CC(C)(O)C1OCC(C2CCC3(C)C4=CCC5C(C)(C)C(O)CCC5(C)C4CCC23C)CC1O (stereo unspecified)
inactive: MOLT-4 10.8 µM | SK-MEL-5 14.7 µM | DU-145 17.3 µM | OVCAR-5 19.5 µM | COLO 205 15 µM | UACC-62 14.9 µM | TK-10 13.2 µM | SK-MEL-2 22.8 µM | HCT-116 14.5 µM | UO-31 16 µM | NCI-H226 13 µM | HT-29 13.1 µM | OVCAR-3 17.1 µM | Malme-3M 18.5 µM | IGROV-1 17.3 µM | SF-268 16.1 µM | SNB-75 16.9 µM

C=CCCCn1ccc2ccccc21
inactive: MOLT-4 > 100 µM | SK-MEL-5 > 100 µM | HOP-62 > 100 µM | OVCAR-5 > 100 µM | COLO 205 > 100 µM | UACC-62 75.9 µM | TK-10 > 100 µM | SK-MEL-2 > 100 µM | HCT-116 > 100 µM | UO-31 > 100 µM | RXF 393 > 100 µM | NCI-H226 > 100 µM | HT-29 > 100 µM | OVCAR-3 > 100 µM | Malme-3M > 100 µM | IGROV-1 > 100 µM | SF-268 > 100 µM | SNB-75 > 100 µM | SR > 100 µM

CN1C(=O)C(=CNc2ccccc2[N+](=O)[O-])C(=O)N(C)C1=O
inactive: MOLT-4 > 100 µM | SK-MEL-5 > 100 µM | HOP-62 > 100 µM | OVCAR-5 > 100 µM | COLO 205 > 100 µM | UACC-62 > 100 µM | TK-10 > 100 µM | SK-MEL-2 > 100 µM | HCT-116 > 100 µM | UO-31 > 100 µM | RXF 393 > 100 µM | NCI-H226 > 100 µM | HT-29 > 100 µM | OVCAR-3 > 100 µM | Malme-3M > 100 µM | IGROV-1 > 100 µM | SF-268 > 100 µM | SNB-75 > 100 µM | SR > 100 µM

COc1cc(NS(C)(=O)=O)ccc1Nc1ccnc2ccc3[nH]ccc3c12
inactive: SK-MEL-5 15.3 µM | DU-145 14.4 µM | HOP-62 15.8 µM | OVCAR-5 16.6 µM | COLO 205 17 µM | UACC-62 17.8 µM | TK-10 16.3 µM | SK-MEL-2 16.7 µM | HCT-116 12.2 µM | UO-31 40.2 µM | NCI-H226 18.9 µM | HT-29 16.8 µM | OVCAR-3 15.3 µM | Malme-3M 14.1 µM | IGROV-1 16.1 µM | SF-268 11 µM

Cc1ccc(NC(=O)/C(=N/NC(=O)CC#N)C2C(=O)N(c3ccccc3)N=C2N)cc1C (stereo unspecified)
inactive: MOLT-4 > 100 µM | SK-MEL-5 > 100 µM | HOP-62 > 100 µM | OVCAR-5 > 100 µM | COLO 205 > 100 µM | UACC-62 > 100 µM | TK-10 > 100 µM | SK-MEL-2 > 100 µM | HCT-116 > 100 µM | UO-31 > 100 µM | RXF 393 > 100 µM | NCI-H226 > 100 µM | HT-29 > 100 µM | OVCAR-3 > 100 µM | Malme-3M > 100 µM | IGROV-1 > 100 µM | SF-268 > 100 µM | SNB-75 > 100 µM | SR > 100 µM

Reference: ChEMBL document CHEMBL1201862, “PubChem BioAssay data set” (2004)
